{
  "source": "paper PMC10221222",
  "about": "(Pharmaceutics, 2023)",
  "key": {"[1]": {"system": "A549 (non-small cell lung cancer)", "conditions": "MTT, 96 h exposure; cited from earlier work"}, "[2]": {"system": "CH1/PA-1 (ovarian teratocarcinoma)", "conditions": "MTT, 96 h exposure; cited from earlier work"}, "[3]": {"system": "SW480 (colon carcinoma)", "conditions": "MTT, 96 h exposure; cited from earlier work"}, "[4]": {"design": "method as in PMID 10222430", "conditions": "cited from earlier work"}, "[5]": {"experiment": "Tumor, organ and blood distribution of platinum by ICP-MS", "assay_type": "in vivo, male CT26-allograft-bearing BALB/c mice", "conditions": "24 h after second application", "method": "Blood was taken after 30 min and 24 h after the first application from the facial vein and terminally by cardiac puncture 24 h after the second application. To separate serum from blood pellet, blood was twice spun down at 900 g for 10 min at 4 °C. The platinum amount of all samples was measured by ICP-MS.\nRenal excretion and glomerular filtration are typical for ≤G4 PAMAM dendrimers and in general for nanoparticles smaller than 5 nm. […] Additionally, the influence of the molecular weight of nanoparticles on the biodistribution behavior was reported previously. […] On the contrary, the efficient kidney accumulation of this dendrimer preparation might also be considered in kidney-specific drug delivery approaches."}, "[6]": {"system": "CT26 murine colon cancer cells", "experiment": "MTT assay in murine cell line CT26", "assay_type": "cell-based", "conditions": "72 h exposure", "procedure": "The MTT assay in the murine cell line CT26 was performed as described in [25].\ncells, obtained by MTT assays with 72 h exposure time."}, "[7]": {"system": "CT26 murine colon cancer allograft", "experiment": "Efficacy study in CT26-allograft-bearing mice (tumor volume, survival)", "assay_type": "in vivo, BALB/c mice", "conditions": "vs solvent control; i.v. twice a week for two weeks; C12 7.5 mg/kg, cisplatin 3 mg/kg", "method": "All drugs were dissolved in 0.9% NaCl.\nThe promising effects further translate into a prolongation trend of animal survival (Figure 4). While in the cisplatin group, weight loss was critical in addition to tumor necrosis, even smaller tumors tended to get necrotic and broke up in C12-treated animals, making the sacrifice of the animals necessary due to ethical guidelines."}, "[8]": {"system": "CH1/PA-1 (ovarian teratocarcinoma)", "experiment": "MTT cytotoxicity assay, 96 h exposure, CH1/PA-1 cells", "assay_type": "cell-based, human", "conditions": "pertains to dendrimer concentration for C1–C24", "method": "(§1) Culture of and 96 h cytotoxicity tests in the human cell lines CH1/PA-1 (ovarian teratocarcinoma), SW480 (colon carcinoma) and A549 (non-small cell lung cancer) were performed as described previously, with the exception that test compounds were dissolved either in sterile water or supplemented MEM and then serially diluted in the latter medium.\n(§2) Three human cancer cell lines differing in their chemosensitivity were employed for testing the cytotoxic potencies of all compounds: the broadly sensitive ovarian teratocarcinoma cell line CH1/PA-1, the multidrug-resistant non-small cell lung cancer cell line A549 and the colon cancer cell line SW480 with mostly intermediate sensitivity."}, "[9]": {"system": "A549 (non-small cell lung cancer)", "experiment": "MTT cytotoxicity assay, 96 h exposure, A549 cells", "assay_type": "cell-based, human", "conditions": "pertains to dendrimer concentration for C1–C24", "method": "as §1\nas §2, with “sensitivity. This pattern of sensitivity also reflects throughout the data compiled here.” for “sensitivity.”"}, "[10]": {"experiment": "Reduction by ascorbic acid followed by time-dependent 1H NMR", "assay_type": "physicochemical", "conditions": "for Reduction Half-Time: 1 mM Pt, 25 eq. ascorbic acid, phosphate-buffered D2O pD 7.4, ambient temperature; for percentage of the reduced species when measurement was stopped before the half-time: 1:25 ascorbic acid, pD 7.4, ambient temperature, at the time given as bound of the half-time", "method": "The reduction of platinum(IV) complexes and representatives of each series of conjugates by ascorbic acid was observed by ^1H NMR spectroscopic measurements at ambient temperature. An amount of 1 mM solutions of platinum(IV) complexes 1–3, 5–7 as well as of the conjugates C2, C11, C13, C22–C24 referred to their corresponding platinum units were prepared in a D2O phosphate-buffered solution (50 mM) at physiological pD = 7.4. Afterwards, ascorbic acid was added as a reducing agent (25 mM, 25 eq.) and ^1H NMR measurements were performed for several days. The reduction behavior for substances 1–3, 5, 6, C2, C11, C13, C22, C23 was monitored by the resulting decrease in intensity of the acetato signal (release of acetic acid). The percentage of reduced species was determined by using the integration ratios of these two signals. Contrarily, ratios of signals of the succinato ligands and free succinic acid were consulted for the reduction determination of substances 7 and C24. However, the reduction half-time of C24 could not be obtained due to the superimposition of the succinato peaks with other signals.\nMoreover, the reduction behavior of conjugates in comparison to unattached platinum(IV) complexes was investigated by time-dependent ^1H NMR spectroscopy (Table 3). In general, the reduction behavior is influenced by the nature of the ligands coordinated to the platinum(IV) core. […] In accordance with previous studies, the cisplatin core of substance 1 led to a faster reduction with a reduction half-time of 6 h, whereas only 6% of the carboplatin(IV) analog 2 was reduced after 95 h. Similar to complex 1, the two chlorido ligands of compound 6 allow fast electron transfer, thereby supporting rapid reduction. […] A potential connection between bulkiness and facilitated reduction has been reported in the literature. As further expected, the influence between G2 and G4 dendrimers on the reduction behavior is marginal due to the huge distance to the platinum(IV) core. Therefore, no significant difference in the rate of reduction between conjugates of G2 and G4 dendrimers was observed based on the measurements of C2 and C13, respectively."}, "[11]": {"system": "SW480 (colon carcinoma)", "experiment": "MTT cytotoxicity assay, 96 h exposure, SW480 cells", "assay_type": "cell-based, human", "conditions": "pertains to dendrimer concentration for C1–C24", "method": "as §1\nas §2, with “sensitivity. This pattern of sensitivity also reflects throughout the data compiled here.” for “sensitivity.”"}},
  "note": "Read-outs that look alike come from different tables or passages of the source.",
  "data": [
    {"compound": "N.N.O=C([O-])C1(C(=O)[O-])CCC1.[Pt+2]", "note": "[Carboplatin, reference compound]", "values": [
      {"measurement": "IC50", "setting": "[1]", "value": "38 ± 3", "unit": "µM"},
      {"measurement": "IC50", "setting": "[2]", "value": "0.79 ± 0.11", "unit": "µM"},
      {"measurement": "IC50", "setting": "[3]", "value": "42 ± 10", "unit": "µM"}
    ]},
    {"compound": "N.N.[Cl][Pt][Cl]", "note": "[Cisplatin]", "values": [
      {"measurement": "maximum tolerated dosage", "setting": "[4]", "value": 3, "unit": "mg/kg"},
      {"measurement": "IC50", "setting": "[1]", "value": "3.8 ± 1", "unit": "µM"},
      {"measurement": "IC50", "setting": "[2]", "value": "0.073 ± 0.001", "unit": "µM"},
      {"measurement": "platinum content of blood cells", "setting": "[5]; 30 min and 24 h after first", "value": "blood cells contained enhanced platinum contents"},
      {"measurement": "platinum levels in lung tissue", "setting": "[5]", "value": "higher levels were detected in lung tissue"},
      {"measurement": "IC50", "setting": "[6]", "value": 1.85, "unit": "µM"},
      {"measurement": "maximum tumor growth inhibition effect", "setting": "[7]", "value": 47.6, "unit": "%"},
      {"measurement": "IC50", "setting": "[3]", "value": "2.3 ± 0.2", "unit": "µM"}
    ]},
    {"compound": "O=C1[O][Pt]2([NH][C@@H]3CCCC[C@H]3[NH]2)[O]C1=O", "note": "[Oxaliplatin, reference compound]", "values": [
      {"measurement": "IC50", "setting": "[1]", "value": "0.98 ± 0.21", "unit": "µM"},
      {"measurement": "IC50", "setting": "[2]", "value": "0.18 ± 0.01", "unit": "µM"},
      {"measurement": "IC50", "setting": "[3]", "value": "0.29 ± 0.05", "unit": "µM"}
    ]},
    {"compound": "(OC-6-44)-(3-carboxypropanoato)(1R,2R-cyclohexanem-1,2-diamine)hydroxidooxalatoplatinum(IV) [Complex 7]", "values": [
      {"measurement": "IC50", "setting": "[8]", "value": "5.2 ± 0.8", "unit": "µM"},
      {"measurement": "IC50", "setting": "[9]", "value": "66 ± 2", "unit": "µM"},
      {"measurement": "Reduction Half-Time", "setting": "[10]", "value": "~29", "unit": "h"},
      {"measurement": "IC50", "setting": "[11]", "value": "20 ± 3", "unit": "µM"}
    ]},
    {"compound": "(OC-6-44)-Acetaodiammine(3-carboxypropanoato)(cyclobutane-1,1-dicarboxylato)platinum(IV) [Complex 2]", "values": [
      {"measurement": "IC50", "setting": "[1]", "value": "> 200", "unit": "µM"},
      {"measurement": "Reduction Half-Time", "setting": "[10]", "value": "> 95", "unit": "h"},
      {"measurement": "percentage of the reduced species when measurement was stopped before the half-time", "setting": "[10]", "value": 6, "unit": "%"},
      {"measurement": "IC50", "setting": "[2]", "value": "16 ± 6", "unit": "µM"},
      {"measurement": "IC50", "setting": "[3]", "value": "> 200", "unit": "µM"}
    ]},
    {"compound": "(OC-6-44)-Acetato(3-carboxypropanoato)(1R,2R-cyclohexane-1,2-diamine)oxalatoplatinum(IV) [Complex 3]", "values": [
      {"measurement": "IC50", "setting": "[1]", "value": "70 ± 29", "unit": "µM"},
      {"measurement": "Reduction Half-Time", "setting": "[10]", "value": "> 165", "unit": "h"},
      {"measurement": "percentage of the reduced species when measurement was stopped before the half-time", "setting": "[10]", "value": 14, "unit": "%"},
      {"measurement": "IC50", "setting": "[2]", "value": "4.1 ± 0.6", "unit": "µM"},
      {"measurement": "IC50", "setting": "[3]", "value": "22 ± 8", "unit": "µM"}
    ]},
    {"compound": "(OC-6-44)-Acetato(3-carboxypropanoato)dichlorido(1R,2R-cyclohexane-1,2-diamine)platinum(IV) [Complex 6]", "values": [
      {"measurement": "IC50", "setting": "[8]", "value": "0.44 ± 0.1", "unit": "µM"},
      {"measurement": "IC50", "setting": "[9]", "value": "2.8 ± 0.1", "unit": "µM"},
      {"measurement": "Reduction Half-Time", "setting": "[10]", "value": "~27", "unit": "h"},
      {"measurement": "IC50", "setting": "[11]", "value": "0.85 ± 0.14", "unit": "µM"}
    ]},
    {"compound": "(OC-6-44)-Acetatodiammine(3-carboxypropanoato)dichloridoplatinum(IV) [Complex 1]", "values": [
      {"measurement": "IC50", "setting": "[1]", "value": "99 ± 17", "unit": "µM"},
      {"measurement": "Reduction Half-Time", "setting": "[10]", "value": "~6", "unit": "h"},
      {"measurement": "IC50", "setting": "[2]", "value": "1.2 ± 0.5", "unit": "µM"},
      {"measurement": "IC50", "setting": "[3]", "value": "47 ± 11", "unit": "µM"}
    ]},
    {"compound": "(OC-6-54)-Acetato(3-carboxypropanoato)(^13C2)oxalato(1R,2R,4R/1S,2S,4S)-(4-trifluoromethyl-cyclohexane-1,2-diamine)platinum(IV) [Complex 5]", "values": [
      {"measurement": "IC50", "setting": "[8]", "value": "6 ± 0.9", "unit": "µM"},
      {"measurement": "IC50", "setting": "[9]", "value": "54 ± 6", "unit": "µM"},
      {"measurement": "Reduction Half-Time", "setting": "[10]", "value": "> 93", "unit": "h"},
      {"measurement": "percentage of the reduced species when measurement was stopped before the half-time", "setting": "[10]", "value": "~23", "unit": "%"},
      {"measurement": "IC50", "setting": "[11]", "value": "33 ± 5", "unit": "µM"}
    ]}
  ]
}
